Among the data in ChEMBL document CHEMBL3608240, “Tetrahydropyrrolo-diazepenones as inhibitors of ERK2 kinase” (Bioorg Med Chem Lett, 2015) are bioavailability and clearance values, retold here.

Series [1] can be described thus: Oral bioavailability in rat at 250 mg/kg. As to conditions: in vivo. It is filed as ADME, organism-based.
Series [2] in a line: Clearance in rat at 1 mg/kg, iv relative to hepatic blood flow. The settings on record: in vivo. It counts as ADME, organism-based, Liver.

Bounds are passed on as bounds.

In series [1], `O=C1c2cc(-c3ccnc(NC4CCOCC4)n3)cn2CCCN1[C@H](CO)c1ccccc1` displayed a bioavailability below 10%. This compound yielded a clearance in series [2] of 79 mL/min/kg.
